This note sets out measurements from patent publication US5753671A, “Imidazopyridine derivatives as dual histamine (H1) and platelet activating factor (PAF) antagonists” (British Biotech Pharmaceuticals Limited, priority 1994, dated 1998).

SMILES strings stand for the structures.

For experiment [1], the target named is T1, Histamine-1 Receptors on Hela-S3 Cells (Homo sapiens, UniProt P35367).
T1 construct: histamine-1 receptors on Hela-S3 cells (American Type Culture Collection); endogenous in cells; host or cells: HeLa S3 cells (American Type Culture Collection), intact cell suspension
T1 sequence (P35367 whole entry): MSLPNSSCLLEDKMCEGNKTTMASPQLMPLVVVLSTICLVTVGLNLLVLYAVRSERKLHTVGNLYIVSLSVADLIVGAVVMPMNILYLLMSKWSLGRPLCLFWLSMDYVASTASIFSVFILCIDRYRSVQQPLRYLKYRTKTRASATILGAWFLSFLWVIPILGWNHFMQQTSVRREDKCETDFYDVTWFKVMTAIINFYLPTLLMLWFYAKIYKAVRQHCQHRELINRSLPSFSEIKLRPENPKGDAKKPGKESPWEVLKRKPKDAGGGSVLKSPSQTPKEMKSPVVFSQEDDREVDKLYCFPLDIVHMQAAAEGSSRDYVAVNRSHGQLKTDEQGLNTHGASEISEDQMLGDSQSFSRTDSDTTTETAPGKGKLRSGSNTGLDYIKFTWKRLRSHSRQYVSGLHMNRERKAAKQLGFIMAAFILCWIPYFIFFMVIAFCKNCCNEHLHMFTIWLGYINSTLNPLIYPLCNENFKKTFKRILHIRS
Briefly: Inhibition of [^3 H]-Pyrilamine Binding to Histamine-1 Receptors on Hela-S3 Cells. As to conditions: 0.5 h, 1 μM test compound, 37° C., 30 minutes, read-out: % Specific Binding. As to the method: Inhibition of [^3 H]-Pyrilamine Binding to Histamine-1 Receptors on Hela-S3 Cells
The inhibition of [^3 H]-pyrilamine binding to histamine-1 receptors on Hela-S3 cells (American Type Culture Collection) was determined by isotopic labelling and filtration techniques. A suspension of the cells in buffer (25 ml, 0.5% Bovine Serum Albumin, 0.1% sodium azide, phosphate buffered saline (PBS)) was centrifuged at 1000 rpm for 5 minutes in a JOUAN CR 422 centrifuge, collected, resuspended in buffer (25 ml) and spun again. The cells were counted using a haemocytometer and resuspended in buffer to provide a final concentration of 4.5×10^6 cells ml^-1. A portion of the Hela S3 cell suspension (1 ml) was added to each assay tube containing 25 μl of vehicle (50% DMSO/buffer) or 25 μl of solution containing test compound (dissolved in DMSO and diluted with sufficient PBS to give a final test concentration of 1 μM) and 25 μl 0f [^3 H]-pyrilamine (supplied by Amersham International and diluted with PBS to 3 nM). The tubes were mixed and incubated at 37° C. for 30 minutes. The tubes were then spun at 4° C. at 2000 rpm for 2 minutes. The supematant was removed and the cells resuspended in buffer (repeated x2). The cells were suspended in 300 μl of a 2:1 solution of 1M sodium hydroxide and 1% sodium dodecyl sulphate. The tubes were left overnight before the contents were tranferred to a scintillation vial, treated with 10 ml, OPTIPHASE MP scintillation fluid (OPTIPHASE MP is a trade mark) and the radioactivity counted in a scintillation counter. Non-displcable binding (NDB) was determined using Astemizole (5×10^-5 M) in place of test compounds. Defining the counts for total binding from the vehicle control sample as "TB" and the counts for total binding with antagonist as "TBA" the percentage specific binding (%SB) can be determined from the following equation. [formula] Results

The test system of experiment [2] is PAF-Induced Platelet Aggregation. The experiment can be described thus: Inhibition of PAF-Induced Platelet Aggregation. Format: cell-based, rabbit (male New Zealand White). As to conditions: Oryctolagus cuniculus; rabbit platelet-rich plasma, PAF 100 ng.ml^-1 (50 μl aliquot), 37° C. The procedure: Inhibition of PAF-Induced Platelet Aggregation
Male New Zealand White rabbits (3.0-3.5 kg) were anaesthetised by intravenous administration of sodium pentobarbitone, […], via a marginal ear vein. The trachea was exposed and connected to a respiratory pump (Havard UK) to provide artificial ventilation. A carotid artery was exposed and cannulated and the animal was exsanguinated. Whole blood was collected in a syringe containing tri-sodium citrate (3.8% w/v) to a ratio of 1 part citrate:9 parts blood.
Collected blood was centrifuged at 180×g for 15 minutes at room temperature (21° C.) to prepare platelet-rich plasma (PRP). The remaining blood was then centrifuged at 1800×g for 10 minutes at room temperature to obtain platelet poor plasma (PPP).
Platelet count of the PRP was measured using a Technicon H1 blood cell differential analyser (Bayer Diagnostics UK) and adjusted with PPP to obtain a final platelet count of 500,000 platelets per μl of plasma, this being the normal physiological platelet count for rabbits. Corrected PRP was left to equilibrate at room temperature for 30 minutes before use.
Aggregation studies were carried out using 4-channel aggregometer (PAP-4C, BioData USA) as follows: 400 μl aliquots of PRP were placed in siliconised cuvettes and incubated to 37° C. for 1 to 2 minutes in the heating block of the aggregometer. Baseline (100% aggregation) was set up using PPP (500 μl in a siliconised cuvette). The PRP was placed into a measuring well of the aggregometer, and a stir bar was added. The sample was stirred at 1000 rpm. The machine was activated to set the 0% aggregation level. Test compound or vehicle (50 μl) was added to the PRP, where any effects on the baseline was noted. PAF (100 ng.ml^-1 as 50 μl aliqout) was added to the PRP 3 minutes after test compound or vehicle. Aggregation was measured for a further 4 minutes after PAF addition and the maximum aggregation over the 4 minutes was recorded.
The investigation of different concentrations of test compound was performed in triplicate. Data were expressed as […] of the sample and test compound data were compared to vehicle data to obtain % inhibition of the PAF-induced aggregation from which IC50 values could be determined.
PAF was made up in sterile saline (NaCl 0.9% w/v) containing BSA (0.25% w/v) from an initial stock solution (10 mg.ml^-1 in EtOH). Test compounds were made up as 1×10^-3 M stock solutions in sterile saline containing molar equivalents of 1N HCI (v/v) or in DMSO.

Experiment [3] relates to Histamine Induced Bronchoconstriction. Briefly: Histamine Induced Bronchoconstriction in the Anaesthetised Guinea Pig. Format: in vivo, guinea pig (male Dunkin-Hartley). As to conditions: Cavia porcellus, 1 h, p.o., histamine infusion 10 μgkg^-1 min^-1 started one hour after oral dosing. The source says:
Histamine Induced Bronchoconstriction in the Anaesthetised Guinea Pig
(§1) Following oral administration of test compound or vehicle by oral gavage, male Dunkin-Hartley guinea pigs (350-400 g) were anaesthetised by intraperitoneal injection of 60 mgkg^-1 sodium pentobarbitone (Sagatal, May & Baker UK). Through a midline incision of the neck, the trachea was cannulated and connected to a small animal respirator (Harvard, UK). Animals were artificially ventilated at a rate of 30 breaths per minute with a tidal volume of 8-10 ml to give a resting tracheal inflation pressure of 15 mmHg as measured by a physiological pressure transducer (type P23XL, Spectramed USA) connected to a side arm of the respiratory circuit.
A jugular vein was cannulated for the administration of propranolol and for the infusion of histamine. A carotid artery was cannulated for the measurement of arterial blood pressure via a physiological pressure transducer (type P23XL, Spectramed USA). Blood pressure and tracheal inflation pressure were recorded on a thermal array chart recorder (type TA4000, Gould Electronics UK).
Following a suitable equilibration period, propranolol (1 mgkg^-1 i.v. & 3 mgkg ^-1 s.c. Sigma Chemical Co. UK) was administered to inhibit any resulting catecholamine release following histamine administration.
Histamine infusion (10 μgkg^-1 min^-1 at a rate of 10 mlhr^-1 using a perfusion pump type Perfuser securer FT, B. Braun Germany) was started at the one hour time point following oral administration of the test compound or vehicle. Changes in tracheal inflation pressure and blood pressure of drug treated animals were compared with changes from vehicle treated animals and ED50 values determined. One dose of test compound was investigated per animal.

In experiment [4] the test system is PAF Induced Bronchoconstriction. Briefly: PAF Induced Bronchoconstriction in the Anaesthetised Guinea Pig. Format: in vivo, guinea pig (male Dunkin-Hartley). As to conditions: 10 mgkg^-1, p.o., PAF 100 ngkg^-1 i.v. bolus one hour after oral dosing.
Excerpt: PAF Induced Bronchoconstriction in the Anaesthetised Guinea Pig
as §1, with “vehicle,” for “vehicle by oral gavage,”, “15mmHg” for “15 mmHg”
A jugular vein was cannulated for the administration of a bolus dose of propranolol and for the later administration of bolus PAF. A carotid artery cannulated for the measurement of arterial blood pressure via a physiological pressure transducer (type P23XL, Spectramed USA). Blood pressure and tracheal inflation pressure were recorded on a thermal array chart recorder (type TA4000, Gould Electronics UK).
Propranolol (1 mgkg^-1 i.v. & 3 mgkg^-1 s.c. Sigma Chemical Co. UK) was administered 10 minutes before PAF in order to prevent the bronchodilatory activity of catecholamines which may be released in response to PAF administration. PAF (100 ngkg^-1 i.v. bolus) was administered at the one hour time point following oral administration of the test compound or vehicle.
Changes in tracheal inflation pressure and blood pressure of drug treated animals were compared with changes from vehicle treated animals and percentage inhibition determined. One dose of test compound was investigated per animal.

For `Cc1nc2cnccc2n1Cc1ccc(S(=O)(=O)N(C)[C@@H](CC(C)C)C(=O)OC(CCCN2CCC(C(O)(c3ccccc3)c3ccccc3)CC2)c2ccc(C(C)(C)C)cc2)cc1` (stereo partly drawn) [Example 2, N-Methyl-N-4-(1H-2-methylimidazo[4,5-c]pyridinylmethyl)-phenylsulphonyl-L-leucine-2-(4-[1,1-dimethylethyl]phenyl)-4-(hydroxydiphenylmethyl)-1-piperidinebutyl ester], the activity at 1 µM in experiment [1] amounted to 57%. Besides, half-maximal inhibition in experiment [2] (IC50) required 2100 nM.

Turning to `Cc1nc2cnccc2n1Cc1ccc(S(=O)(=O)N(C)[C@@H](CC(C)C)C(=O)OCCCN2CCN(C(c3ccccc3)c3ccccc3)CC2)cc1` [Example 4, N-Methyl-N-4-(1H-2-methylimidazo[4,5-c]pyridinylmethyl)-phenylsulphonyl-L-leucine-3-(4-benzhydryl-piperazin-1-yl)-propyl ester], the activity at 1 µM in experiment [1] came to 34%. In experiment [2], this molecule registered an IC50 of 190 nM.

For the molecule `Cc1nc2cnccc2n1Cc1ccc(S(=O)(=O)N(C)[C@@H](CC(C)C)C(=O)N2CCC(=C3c4ccc(Cl)cc4CCc4cccnc43)CC2)cc1` [Example 6, 4-(8-Chloro-5,6-dihydro-11H-benzo[5,6]cyclohepta[1.2-b]-pyridin-11-ylidene)-1-(N-methyl-N-4-{1H-2-methylimidazo[4,5-c]pyridinylmethyl}-phenylsulphonyl-L-leucyl)-piperidine amide], in experiment [1], the activity at 1 µM was found to be 79%. In experiment [3], this molecule had an ED50 of 6.5 mg/kg. The “% Inhibition” value in experiment [4] is recorded as 40%. Moreover, the IC50 in experiment [2] worked out at 252 nM.

Regarding `Cc1ccc(/C(=C\CN2CCCC2)c2cccc(/C=C/C(=O)OC[C@H](CC(C)C)N(C)S(=O)(=O)c3ccc(Cn4c(C)nc5cnccc54)cc3)n2)cc1` [Example 8, (E)-3-(6-[Pyrrolidino-1-{4-tolyl}prop-1E-enyl]-2-pyridyl)acrylic acid, N-methyl-N-4-(1H-2-methylimidazo[4,5-c]pyridinylmethyl)-phenylsulphonyl-L-leucyl ester], it took a dose of 0.16 mg/kg to reach the 50% effect level in experiment [3] (ED50). The “% Inhibition” value in experiment [4] is 46%.

Take `Cc1ccc(/C(=C\CN2CCCC2)c2cccc(/C=C/COC(=O)[C@H](CC(C)C)N(C)S(=O)(=O)c3ccc(Cn4c(C)nc5cnccc54)cc3)n2)cc1` [Example 17, 4-Methyl-2-{methyl-[4-(2-methyl-imidazo[4,5-c]pyridin-1-ylmethyl)-phenylsulphonyl]-amino}-pentanoic acid-(E)-3-(6-[3-pyrrolidino-1-{4-tolyl}-prop-1E-enyl]-pyridin-2-yl)-prop-2-en-1-yl ester]: the activity at 1 µM in experiment [1] was 47%. The IC50 in experiment [2] was 115 nM.

As for `CCOC[C@H](CC(C)C)N(CCCN(C)CCC(c1ccc(Cl)cc1)c1ccccn1)S(=O)(=O)c1ccc(Cn2c(C)nc3cnccc32)cc1` (stereo partly drawn) [Example 23, N-(3-{[3-(R,S)-(4-Chlorophenyl)-3-pyridin-2-yl-propyl]-methylamino}propyl)-N-(S)-(1-ethoxymethyl-3-methylbutyl)-4-(1H-2-methylimidazo[4,5-c]pyridin-1-ylmethyl)-phenylsulphonamide], the activity at 1 µM in experiment [1] was 33%. The molecule also displayed an IC50 in experiment [2] of 300 nM.

Take `CCOC[C@H](CC(C)C)N(C/C=C/c1cccc(/C(=C/CN2CCCC2)c2ccc(C)cc2)n1)S(=O)(=O)c1ccc(Cn2c(C)nc3cnccc32)cc1` [Example 25, N-(S)-(1-Ethoxymethyl-3-methylbutyl)-N-{(E)-3-(6-[3-pyrrolidino-1-{4-tolyl}-prop-1E-enyl]-pyridin-2-yl)-prop-2-en-1-yl}-4-(1H-2-methylimidazo[4,5-c]pyridin-1-ylmethyl)-phenylsulphonamide]: the activity at 1 µM in experiment [1] amounted to 55%. In experiment [3], this molecule returned an ED50 of 0.5 mg/kg. Besides, the “% Inhibition” value in experiment [4] was 50%. Moreover, the IC50 in experiment [2] stood at 420 nM.
